Test results as given in US11414431B2, “Substituted pyrazolo[1,5-a]pyrimidines as TYK2 inhibitors” (Nimbus Lakshmi, Inc., priority 2018, dated 2022).

Columns and labels:
[1] = molecular target: TYK2 (Homo sapiens (Human), UniProt P29597); experiment: TYK2 Radioactive Kinase Assay; assay type: biochemical; settings: compound at 10 μM; peptide substrate […]; read-out: TYK2 (% Inhibition at 10 μM)
[2] = system: IL-12 induced STAT4 phosphorlyation mediated by TYK2/JAK2; experiment: IL-12 Induced pSTAT4 in Human PBMC; assay type: cell-based; settings: 0.5 h, 1.7 ng/mL IL-12 for 30 minutes
Summary of the method: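 Thawed human PBMC pre-incubated with compound 1 hr at 37° C (0.1% DMSO final), then stimulated 30 minutes with IL-12 at 1.7 ng/mL final. pSTAT4 and total STAT4 measured in cell lysates with MSD reagents.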

[3] = molecular target: JAK2 (Homo sapiens (Human), UniProt O60674); experiment: JAK2 Radioactive Kinase Assay; assay type: biochemical; settings: compound at 10 μM; substrate poly[Glu:Tyr] (4:1); read-out: JAK2 (% Inhibition at 10 μM)
Sequence of JAK2 (O60674 whole entry): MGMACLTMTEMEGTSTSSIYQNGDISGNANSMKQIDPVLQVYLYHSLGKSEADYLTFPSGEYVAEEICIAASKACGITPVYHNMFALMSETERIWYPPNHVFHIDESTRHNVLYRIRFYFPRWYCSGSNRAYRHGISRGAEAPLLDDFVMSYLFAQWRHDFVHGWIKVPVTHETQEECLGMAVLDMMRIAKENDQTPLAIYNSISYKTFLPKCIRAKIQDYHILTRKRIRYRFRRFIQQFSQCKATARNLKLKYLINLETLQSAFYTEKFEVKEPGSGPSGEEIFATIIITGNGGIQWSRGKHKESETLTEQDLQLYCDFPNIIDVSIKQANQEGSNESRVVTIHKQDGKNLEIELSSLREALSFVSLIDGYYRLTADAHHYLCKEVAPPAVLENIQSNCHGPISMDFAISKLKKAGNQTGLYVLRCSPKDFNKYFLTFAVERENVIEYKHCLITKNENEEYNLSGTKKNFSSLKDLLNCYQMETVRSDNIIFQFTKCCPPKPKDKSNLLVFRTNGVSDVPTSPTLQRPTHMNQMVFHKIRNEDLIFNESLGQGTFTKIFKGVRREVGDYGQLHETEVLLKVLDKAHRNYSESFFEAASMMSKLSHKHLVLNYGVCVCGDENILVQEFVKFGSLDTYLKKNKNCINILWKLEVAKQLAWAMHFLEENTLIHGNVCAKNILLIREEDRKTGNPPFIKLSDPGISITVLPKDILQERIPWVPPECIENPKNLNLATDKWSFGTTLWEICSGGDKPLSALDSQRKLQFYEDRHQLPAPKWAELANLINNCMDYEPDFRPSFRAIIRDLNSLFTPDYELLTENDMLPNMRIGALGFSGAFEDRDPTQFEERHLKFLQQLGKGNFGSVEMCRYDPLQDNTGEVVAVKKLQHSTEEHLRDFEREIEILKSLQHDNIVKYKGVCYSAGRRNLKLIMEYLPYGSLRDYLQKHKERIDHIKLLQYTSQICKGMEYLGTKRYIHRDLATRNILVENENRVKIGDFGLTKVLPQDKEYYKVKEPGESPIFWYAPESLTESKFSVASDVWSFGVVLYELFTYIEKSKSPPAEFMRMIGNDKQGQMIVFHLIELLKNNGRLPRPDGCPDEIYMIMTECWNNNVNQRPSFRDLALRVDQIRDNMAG
Method: Peptide substrate, [[…]], (20 μM) was prepared in reaction buffer (20 mM Hepes pH 7.5, 10 mM MgCl2, 1 mM EGTA, 0.02% Brij35, 0.02 mg/mL BSA, 0.1 mM […], 2 mM DTT, 1% DMSO. TYK2 (Invitrogen) kinase was added, followed by compounds in DMSO. 33PATP was added to initiate the reaction in ATP at […]. Kinase reaction was incubated for 120 min at room temp and reactions were spotted onto P^81 ion exchange paper (Whatman #3698-915), and then washed extensively in 0.75% phosphoric acid, prior to reading the radioactivity counts. For JAK2 (Invitrogen) kinase assay the peptide substrate poly[Glu:Tyr] (4:1), 0.2 mg/mL was used, in the reaction carried out the same as for TYK2.

[4] = molecular target: human TYK2 (JH2domain-pseudokinase) (Homo sapiens (Human), UniProt P29597); experiment: TYK2 JH2 Domain Binding Assay (KINOMEscan); settings: 11-point 3-fold dilution, top concentration 30,000 nM, duplicate; read-out: hTYK2_JH2_Binding (Kd; nM)
Sequence of human TYK2 (JH2domain-pseudokinase) (P29597 556-888): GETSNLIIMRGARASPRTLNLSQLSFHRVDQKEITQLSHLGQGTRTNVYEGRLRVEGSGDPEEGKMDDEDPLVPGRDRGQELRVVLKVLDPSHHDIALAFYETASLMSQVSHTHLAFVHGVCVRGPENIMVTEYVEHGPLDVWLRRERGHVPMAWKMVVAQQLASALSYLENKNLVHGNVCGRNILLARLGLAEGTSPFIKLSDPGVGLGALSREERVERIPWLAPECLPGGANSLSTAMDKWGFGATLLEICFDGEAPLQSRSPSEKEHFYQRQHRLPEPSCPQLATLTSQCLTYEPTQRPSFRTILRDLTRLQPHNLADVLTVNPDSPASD
Summary of the method: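 KINOMEscan competition binding: HEK293-expressed NFkB-fused TYK2 JH2 (G556–D888), DNA-tagged, against immobilized ligand beads, 1 h shaking at room temperature, 0.9% DMSO. Bound kinase quantified by qPCR.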

Sequence of TYK2 (P29597 whole entry): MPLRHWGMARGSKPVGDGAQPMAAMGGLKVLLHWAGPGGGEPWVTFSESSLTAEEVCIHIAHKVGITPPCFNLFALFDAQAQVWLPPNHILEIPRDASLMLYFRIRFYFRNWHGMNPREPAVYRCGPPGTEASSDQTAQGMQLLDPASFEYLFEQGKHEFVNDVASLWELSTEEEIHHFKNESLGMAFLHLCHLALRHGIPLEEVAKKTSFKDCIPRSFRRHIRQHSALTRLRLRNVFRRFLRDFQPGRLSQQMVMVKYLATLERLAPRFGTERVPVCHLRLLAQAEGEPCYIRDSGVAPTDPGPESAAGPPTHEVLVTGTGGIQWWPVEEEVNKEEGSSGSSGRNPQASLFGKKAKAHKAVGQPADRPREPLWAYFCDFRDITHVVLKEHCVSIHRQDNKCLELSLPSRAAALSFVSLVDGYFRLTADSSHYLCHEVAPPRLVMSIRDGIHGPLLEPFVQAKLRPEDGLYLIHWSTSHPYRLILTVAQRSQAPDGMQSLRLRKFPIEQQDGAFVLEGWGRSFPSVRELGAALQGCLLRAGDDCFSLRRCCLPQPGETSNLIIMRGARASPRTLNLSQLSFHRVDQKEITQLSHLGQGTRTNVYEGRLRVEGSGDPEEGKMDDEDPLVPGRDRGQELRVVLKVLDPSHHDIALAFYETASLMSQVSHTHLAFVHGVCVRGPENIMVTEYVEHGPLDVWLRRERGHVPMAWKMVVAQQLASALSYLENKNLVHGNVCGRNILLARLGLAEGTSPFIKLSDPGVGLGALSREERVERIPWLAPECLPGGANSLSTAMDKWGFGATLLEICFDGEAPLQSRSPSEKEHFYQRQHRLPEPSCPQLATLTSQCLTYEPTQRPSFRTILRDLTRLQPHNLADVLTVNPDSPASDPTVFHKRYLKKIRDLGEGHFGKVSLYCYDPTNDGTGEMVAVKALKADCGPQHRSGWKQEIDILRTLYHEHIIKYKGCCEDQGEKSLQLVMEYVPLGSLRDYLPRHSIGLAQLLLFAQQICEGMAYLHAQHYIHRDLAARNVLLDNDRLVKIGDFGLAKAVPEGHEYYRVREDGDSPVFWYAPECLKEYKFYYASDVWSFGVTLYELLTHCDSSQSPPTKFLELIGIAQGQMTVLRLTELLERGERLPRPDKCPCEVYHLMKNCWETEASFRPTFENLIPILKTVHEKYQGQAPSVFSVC

Row | SMILES | inhibition at 10 µM [1] [%] | IC50 [2] [µM] | inhibition at 10 µM [3] [%] | Kd [4] [nM]
1 | CNc1cc(Nc2cccn(C3CCC[C@@](C)(O)C3)c2=O)nc2c(C(=O)NC3CC3)cnn12 (stereo in doubt) [Compound I-1, N-Cyclopropyl-5-((1-(3-hydroxy-3-methylcyclohexyl)-2-oxo-1,2-dihydropyridin-3-yl)amino)-7-(methylamino)pyrazolo[1,5-a]pyrimidine-3-carboxamide] | < 50 | > 1 | < 50 | < 0.2
2 | CNc1cc(-c2cn(C3CCOCC3)c3ncc(F)cc23)nc2c(C(=O)N[C@H]3CC[C@@H]3O)cnn12 [Compound I-18, 5-(5-Fluoro-1-(tetrahydro-2H-pyran-4-yl)-1H-pyrrolo[2,3-b]pyridin-3-yl)-N-((1S,2S)-2-hydroxycyclobutyl)-7-(methylamino)pyrazolo[1,5-a]pyrimidine-3-carboxamide] | < 50 |  | < 50 | < 0.2
3 | CNc1cc(-c2cn(C3CCOCC3)c3ncc(F)cc23)nc2c(C(=O)N[C@@H]3CC[C@H]3O)cnn12 [Compound I-19, 5-(5-Fluoro-1-(tetrahydro-2H-pyran-4-yl)-1H-pyrrolo[2,3-b]pyridin-3-yl)-N-((1R,2R)-2-hydroxycyclobutyl)-7-(methylamino)pyrazolo[1,5-a]pyrimidine-3-carboxamide] | < 50 |  | < 50 | 0.2 to 1
4 | CNc1cc(Nc2cccn(C3CC(F)(F)C3)c2=O)nc2c(C(=O)N[C@@H]3CC[C@H](O)C3)cnn12 [Compound I-36, 5-((1-(3,3-Difluorocyclobutyl)-2-oxo-1,2-dihydropyridin-3-yl)amino)-N-((1R,3S)-3-hydroxycyclopentyl)-7-(methylamino)pyrazolo[1,5-a]pyrimidine-3-carboxamide] | < 50 |  | < 50 | 0.2 to 1
5 | CNc1cc(Nc2cccn(C3CC(F)(F)C3)c2=O)nc2c(C(=O)N[C@H]3CC[C@@H](O)C3)cnn12 [Compound I-37, 5-((1-(3,3-Difluorocyclobutyl)-2-oxo-1,2-dihydropyridin-3-yl)amino)-N-((1S,3R)-3-hydroxycyclopentyl)-7-(methylamino)pyrazolo[1,5-a]pyrimidine-3-carboxamide] | < 50 |  | < 50 | 0.2 to 1
6 | CNc1cc(Nc2cccn(C3CC(F)(F)C3)c2=O)nc2c(C(=O)N[C@H]3CC[C@@H]3OC)cnn12 [Compound I-47, 5-((1-(3,3-Difluorocyclobutyl)-2-oxo-1,2-dihydropyridin-3-yl)amino)-N-((1S,2S)-2-methoxycyclobutyl)-7-(methylamino)pyrazolo[1,5-a]pyrimidine-3-carboxamide] | < 50 |  | < 50 | > 10
7 | CNc1cc(Nc2cccn(C3CC(F)(F)C3)c2=O)nc2c(C(=O)N[C@@H]3CC[C@H]3OC)cnn12 [Compound I-48, 5-((1-(3,3-Difluorocyclobutyl)-2-oxo-1,2-dihydropyridin-3-yl)amino)-N-((1R,2R)-2-methoxycyclobutyl)-7-(methylamino)pyrazolo[1,5-a]pyrimidine-3-carboxamide] | < 50 | < 0.1 | < 50 | < 0.2
8 | CNc1cc(Nc2cccn(C3CC(F)(F)C3)c2=O)nc2c(C(=O)N[C@H]3COC[C@H]3O)cnn12 [Compound I-58, 5-((1-(3,3-Difluorocyclobutyl)-2-oxo-1,2-dihydropyridin-3-yl)amino)-N-((3S,4S)-4-hydroxytetrahydrofuran-3-yl)-7-(methylamino)pyrazolo[1,5-a]pyrimidine-3-carboxamide] | < 50 |  | < 50 | 0.2 to 1
9 | CNc1cc(Nc2cccn(C3CC(F)(F)C3)c2=O)nc2c(C(=O)N[C@@H]3COC[C@@H]3O)cnn12 [Compound I-59, 5-((1-(3,3-Difluorocyclobutyl)-2-oxo-1,2-dihydropyridin-3-yl)amino)-N-((3R,4R)-4-hydroxytetrahydrofuran-3-yl)-7-(methylamino)pyrazolo[1,5-a]pyrimidine-3-carboxamide] | < 50 |  | < 50 | 1 to 10
10 | CNc1cc(Nc2cccn(-c3ccccn3)c2=O)nc2c(C(=O)N[C@H]3CC[C@H](OC)C3)cnn12 [Compound I-68, N-((1S,3S)-3-Methoxycyclopentyl)-7-(methylamino)-5-((2-oxo-2H-[1,2′-bipyridin]-3-yl)amino)pyrazolo[1,5-a]pyrimidine-3-carboxamide] | < 50 |  | < 50 | […]
11 | CNc1cc(Nc2cccn([C@H]3CCCOC3)c2=O)nc2c(C(=O)N[C@@H]3CCC[C@@](C)(OC)C3)cnn12 [Compound I-94, N-((1R,3R)-3-Methoxy-3-methylcyclohexyl)-7-(methylamino)-5-((2-oxo-1-((S)-tetrahydro-2H-pyran-3-yl)-1,2-dihydropyridin-3-yl)amino)pyrazolo[1,5-a]pyrimidine-3-carboxamide] | < 50 |  | < 50 | 1 to 10
12 | CNc1cc(Nc2cccn([C@H]3CCCOC3)c2=O)nc2c(C(=O)N[C@H]3CCC[C@](C)(OC)C3)cnn12 [Compound I-95, N-((1S,3S)-3-Methoxy-3-methylcyclohexyl)-7-(methylamino)-5-((2-oxo-1-((S)-tetrahydro-2H-pyran-3-yl)-1,2-dihydropyridin-3-yl)amino)pyrazolo[1,5-a]pyrimidine-3-carboxamide] | < 50 |  | < 50 | 1 to 10
13 | CNc1cc(Nc2cccn([C@@H]3CCOC[C@@H]3OC)c2=O)nc2c(-c3cn(C(C)C)nn3)cnn12 [Compound I-116, 3-((3-(1-Isopropyl-1H-1,2,3-triazol-4-yl)-7-(methylamino)pyrazolo[1,5-a]pyrimidin-5-yl)amino)-1-((3R,4R)-3-methoxytetrahydro-2H-pyran-4-yl)pyridin-2(1H)-one] | < 50 |  | < 50 | 1 to 10
14 | CNc1cc(Nc2cccn([C@H]3CCOC[C@H]3OC)c2=O)nc2c(-c3cn(C(C)C)nn3)cnn12 [Compound I-117, 3-((3-(1-Isopropyl-1H-1,2,3-triazol-4-yl)-7-(methylamino)pyrazolo[1,5-a]pyrimidin-5-yl)amino)-1-((3S,4S)-3-methoxytetrahydro-2H-pyran-4-yl)pyridin-2(1H)-one] | < 50 |  | < 50 | > 10
